{"source": "patent US7560477B2", "about": "“Compounds active in sphingosine 1-phosphate signaling” (University of Virginia Patent Foundation, priority 2002, dated 2009)", "format_in_all_cases": "biochemical", "key": {"hS1P3": {"target": "T1, hS1P3 (Homo sapiens, UniProt Q99500)", "T1 construct": "expressed in transfected cells; host or cells: HEK293T cells, transient transfection", "T1 sequence (Q99500 whole entry)": "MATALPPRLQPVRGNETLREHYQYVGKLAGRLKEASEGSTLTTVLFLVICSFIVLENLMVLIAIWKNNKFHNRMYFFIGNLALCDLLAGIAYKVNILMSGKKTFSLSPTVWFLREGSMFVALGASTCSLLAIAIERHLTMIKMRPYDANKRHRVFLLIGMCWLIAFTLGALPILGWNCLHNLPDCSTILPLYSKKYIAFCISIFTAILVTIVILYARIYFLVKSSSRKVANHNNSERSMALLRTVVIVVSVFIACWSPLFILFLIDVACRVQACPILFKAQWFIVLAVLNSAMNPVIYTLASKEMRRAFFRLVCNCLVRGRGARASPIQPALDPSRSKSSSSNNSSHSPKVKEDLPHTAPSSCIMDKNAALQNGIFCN", "experiment": "[γ-35S]GTP binding, HEK293T cell membranes with S1P3 receptor", "protocol": "(§1) Human or mouse S1P5 DNA was mixed with an equal amount of DNA encoding a rat Gi2R protein as well as DNAs encoding cow β1 and γ2 proteins and used to transfect monolayers of HEK293T cells using the calcium phosphate precipitate method. After 60 h, cells were harvested, and microsomes were prepared, aliquoted, and stored at −70° C. until use.\n(§2) After incubating for 30 min at 30° C., bound radionuclide was separated from free by filtration through Whatman GF/C paper using a Brandel Cell Harvester (Gaithersburg, Md.).\n(§3) Assay of cAMP accumulation was performed as described previously (See Im et al., J. Biol. Chem. 275, 14281-14286 (2000), the disclosure of which is incorporated herein). Assays were conducted on populations of 5×10^5 cells stimulated with 1 uM forskolin in the presence of the phosphodiesterase inhibitor […] (IBMX, 1 mM) for 15 min. cAMP was measured by automated radioimmunoassay. The GTPγS studies were performed using zebrafish S1P1 overexpressed rat RH-7777 and human hS1P1, hS1P2, hS1P3 and hS1P5 overexpressed human HEK293 cells.\n(§4) An additional series of compounds was tested using the GTPCS binding assay described in Example 2 and in Im et al., J. Biol. Chem. 275, 14281-14286 (2000), the disclosure of which is incorporated herein)."}, "hS1P1": {"target": "T2, hS1P1 (Homo sapiens, UniProt P21453)", "T2 construct": "expressed in transfected cells; host or cells: HEK293T cells, transient transfection", "T2 sequence (P21453 whole entry)": "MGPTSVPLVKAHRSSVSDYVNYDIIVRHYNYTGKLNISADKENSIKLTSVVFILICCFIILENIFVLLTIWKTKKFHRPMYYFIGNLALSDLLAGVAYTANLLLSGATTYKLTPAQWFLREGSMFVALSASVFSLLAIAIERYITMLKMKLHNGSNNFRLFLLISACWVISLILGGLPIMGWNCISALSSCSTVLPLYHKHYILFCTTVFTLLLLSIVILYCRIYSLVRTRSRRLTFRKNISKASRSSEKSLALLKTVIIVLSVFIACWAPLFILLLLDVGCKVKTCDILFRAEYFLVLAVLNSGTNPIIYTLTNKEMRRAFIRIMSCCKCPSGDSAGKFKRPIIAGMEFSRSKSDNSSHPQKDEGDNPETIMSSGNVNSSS", "experiment": "[γ-35S]GTP binding, HEK293T cell membranes with S1P1 receptor", "protocol": "as §1, §2, §3, §4"}, "[1]": {"system": "Recombinant S1P Receptors", "experiment": "[γ-35S]GTP binding at recombinant S1P receptors (statements covering all receptors tested)", "details": "at each receptor", "protocol": "The same results were obtained regardless of whether the recombinant receptor used exogenous G proteins (HEK293T cells) or endogenous G proteins (RH7777 cells). […] The Sf9 cell and HEK293T cell membranes gave similar results. Furthermore, the activities measured in the broken cell assay predicted the responses seen in whole cell assays.\nas §2, §3"}}}
{"smiles": "CCCCCCCCCc1cccc(NC(=O)[C@H](N)COP(=O)(O)O)c1", "note": "[VPC23079]", "values": [{"measurement": "type of activity at the S1P3 receptor (inverse agonism / agonism)", "setting": "hS1P3; result in words", "result": "agonism"}]}
{"smiles": "CCCCCCCCc1cccc(NC(=O)[C@H](N)COP(=O)(O)O)c1", "note": "[VPC23019]", "values": [{"measurement": "antagonism at S1P1", "setting": "hS1P1; result in words, competition with S1P", "result": "antagonism"}, {"measurement": "type of activity at the S1P3 receptor (inverse agonism / agonism)", "setting": "hS1P3; result in words", "result": "inverse agonists"}]}
{"smiles": "CCCCCCCCCCc1cccc(NC(=O)[C@H](N)COP(=O)(O)O)c1", "note": "[VPC23069]", "values": [{"measurement": "type of activity at the S1P3 receptor (inverse agonism / agonism)", "setting": "hS1P3; result in words", "result": "agonism"}]}
{"smiles": "CCCCCCc1cccc(NC(=O)[C@H](N)COP(=O)(O)O)c1", "note": "[VPC23031]", "values": [{"measurement": "type of activity at the S1P3 receptor (inverse agonism / agonism)", "setting": "hS1P3; result in words", "result": "inverse agonists"}]}
{"smiles": "CCCCCCCCCCCCC/C=C/[C@@H](O)[C@@H](N)COP(=O)(O)O", "note": "[Compound S1P, Sphingosine-1-phosphate]", "values": [{"measurement": "increase of GTPγS binding", "setting": "[1]", "result": "2-5 fold"}]}
{"smiles": "CCCCCCCCc1ccccc1NC(=O)[C@H](N)COP(=O)(O)O", "note": "[VPC23089]", "values": [{"measurement": "type of activity at the S1P3 receptor (inverse agonism / agonism)", "setting": "hS1P3; result in words", "result": "inverse agonists"}]}
{"smiles": "CCCCCCCCCCCCCCOC(=O)[C@@H](N)COP(=O)(O)O", "note": "[VPC22053]", "values": [{"measurement": "less potent than enantiomer VPC22135 at S1P1 receptor", "setting": "hS1P1", "result": "more than 1 log order"}, {"measurement": "less potent than enantiomer VPC22135 at S1P3 receptor", "setting": "hS1P3", "result": "more than 1 log order"}]}
{"smiles": "CCCCCCCCCCCCCCNC(=O)[C@H](N)COP(=O)(O)O", "note": "[VPC22135]", "values": [{"measurement": "potency compared with S1P at human S1P1 receptor", "setting": "hS1P1; result in words", "result": "approached the potency of S1P"}, {"measurement": "potency compared with S1P at human S1P3 receptor", "setting": "hS1P3; result in words", "result": "approached the potency of S1P"}]}
